Assay results as given in patent US7256042B2, “Process for making hepatocytes from pluripotent stem cells” (Geron Corporation, priority 2000, dated 2007).
Where two headings read alike, the source gives them in different places.

Experiments:
[1] = tested on: hES cell derived embryoid bodies; assay: Comparison of potential hepatocyte differentiation agents; type: cell-based, human; conditions: for Induction of hepatocyte phenotype: EBs 4 days in suspension, replated on plates coated with collagenase 1, cultured with each compound for 6 days, analogs at 5 mM; for Effect on hepatocyte differentiation (in words): concentration of 5 mM; for Induction of hepatocyte phenotype: key: +: Causes hepatocyte differentiation and selective elimination of other cell types; −: No inductive effect; ±: Mild inductive effect; may allow growth or survival of other cell types
Method: (§1) The effect of sodium butyrate was compared with other potential hepatocyte differentiation agents in a similar protocol. Embryoid bodies were cultured in suspension for 4 days, and then replated on plates coated with collagenase 1. The cells were then cultured in the presence of each compound for 6 days.

[2] = tested on: EBs generated from hES cells; conditions: 20% FBS + 5 mM Na-butyrate, with or without 1% DMSO, 6 days
Method: (§2) The fixed cells were rinsed with PBS twice and blocked for 1 hour in 10% goat serum in PBS. They were then incubated in primary antibody diluted in 10% goat serum and PBS for 2 h. Antibody to albumin, alpha fetoprotein (AFP) (Sigma) and α1-antitrypsin (OEB Biosciences Inc.) were diluted at 1:500, cytokeratin, 8, 18 and 19, desmin, (Neomarkers), vimentin (Dako) and SMA (Sigma) were diluted at 1:200. Cells were then washed 3 times with PBS and incubated in secondary antibody, which was FITC-conjugated anti-mouse IgG diluted 1:100 and Hoechst HH33258 (Sigma) at 1:1000 in 5% goat serum in PBS, and incubated for 1 h. The stained cells were then washed 3 times in PBS, and mounted in Vectashield™ (Vector Labs). Images were taken at 10× and 40× using a Nikon Labophot™ equipped with epifluorescence and a spot CCD camera.
EBs were generated from hES cells in feeder-free conditions. After 4 days in suspension, the EBs were plated in 20% FBS medium supplemented with 5 mM Na-butyrate or 5 mM Na-butyrate and 1% DMSO. The EBs were plated on the following matrices: • 1. collagen I (0.03 mg/mL coated overnight at 37° C.) • 2. growth factor reduced Matrigel® (1:10, coated for 1 h at room temp) • 3. gelatin (1% coated for 2 h at 37° C.)
After 6 days in Na-butyrate the cells were evaluated morphologically and using immunocytochemistry for hepatocyte markers.

hES cells [3] = assay: Phenotype of hepatocyte lineage cells made using sodium n-butyrate or Trichostatin A; type: cell-based, human; conditions: 5 mM sodium n-butyrate; 100 nM Trichostatin A
Method: as §1
At 75-100 nM, Trichostatin A appeared to both induce hepatocyte differentiation and select against survival of other cell types.

[4] = tested on: Human ES cell derived embryoid bodies; conditions: 5 mM Na butyrate, with or without 1% DMSO, day 7
[5] = tested on: undifferentiated hES cells; assay: Direct differentiation of hES cells without embryoid bodies, immunocytochemistry (Example 7); type: cell-based, human; conditions: 1% DMSO 4 days, then 2.5% Na-butyrate 6 days
Description: The undifferentiated hES cells were maintained in feeder-free conditions (on Matrigel® in MEF-CM). The strategy was to initiate a global differentiation process by adding the hepatocyte maturation factors DMSO or retanoic acid (RA) to a subconfluent culture. The cells are then induced to form hepatocyte-like cells by the addition of Na-butyrate.
The hES cells were maintained in undifferentiated culture conditions for 2-3 days after splitting. At this time, the cells were 50-60% confluent and the medium was exchanged with unconditioned SR medium containing 1% DMSO. The cultures were fed daily with SR medium for 4 days and then exchanged into unconditioned SR medium containing 2.5% Na-butyrate. The cultures were fed daily with this medium for 6 days; at which time one half of the cultures were evaluated by immunocytochemistry. The other half of the cultures were harvested with trypsin and replated onto collagen, to further promote enrichment for hepatocyte lineage cells. Immunocytochemistry was then performed on the following day.

H9 hES cells = assay: Differentiation of hES cells in feeder-free culture, morphology (Example 5); type: cell-based, human; conditions: feeder-free H9 hES cells on laminin, SR medium + 5 mM sodium butyrate, about six days after treatment
Method: Undifferentiated hES colonies were passaged continuously in feeder-free conditions as follows. Cultures were incubated in 1 mg/mL collagenase for about 5 minutes at 37° C. The cells were then harvested by scraping the cells off the surface and dissociating them into small clumps. Cells were split at a 1:3 or 1:6 ratio, ˜55,000 cells/mL (17,000 cells/cm^2). The day after replating, colonies of undifferentiated cells could again be identified. Single cells in between the colonies were differentiated. Over the next few days, the undifferentiated cells were seen to proliferate and the colonies became large and compact. The differentiated cells in between the colonies also became more compact. The cells became confluent after 4-7 days of being fed daily with conditioned media. When the cells reached confluence, they were split once more.
For this example, the H9 hES cells (p30+5) were maintained in feeder-free conditions for 30 days (5 passages) before differentiation. The undifferentiated cells were maintained on laminin and fed with MEF-conditioned medium, as described elsewhere in this disclosure. To induce differentiation, the conditioned medium was replaced with SR medium (without supplemental bFGF) containing 5 mM sodium butyrate.

[6] = tested on: hES cell derived embryoid body cells; assay: Immunocytochemistry of embryoid body cells cultured 4 days after plating (Example 1)
Method: Confluent monolayer cultures of hES cells on or off feeder cells were harvested by incubating in collagenase for 15-20 min, following which the cells are scraped from the plate. The cells were then dissociated into clusters and plated in non-adherent cell culture plates (Costar) in a medium composed of 80% KO DMEM (Gibco) and 20% non-heat-inactivated FBS (Hyclone), supplemented with 1% non-essential amino acids, 1 mM glutamine, 0.1 mM β-mercaptoethanol. The cells were seeded at a 1:2 ratio in 2 mL medium per well (6 well plate). The EBs were fed every other day by the addition of 2 mL of medium per well. When the volume of medium exceeded 4 mL/well, the EBs were collected and resuspended in fresh medium. After 4-8 days in suspension, the EBs were plated onto a substrate and allowed to differentiate further.
as §2
Embryoid bodies (EB) were prepared as described in the preceding section. After 5 days in suspension culture, they were harvested and plated on Growth Factor Reduced Matrigel® coated plates and in chamber slides (Nunc). One of the following three conditions was used in parallel: • medium containing 20% fetal bovine serum (FBS); • medium containing 20% FBS and 5 mM sodium butyrate (Sigma); • medium containing 20% FBS, 0.5% DMSO (ATCC), 4 μM dexamethazone (Sigma), 150 ng/ml insulin, 10 ng/ml EGF, 600 nM glucagon (Sigma). In each case, the medium was exchanged every day, and cells were fixed for immunocytochemistry on day 4 after plating.

hES cells [7] = assay: Direct differentiation Protocol 7, cell morphology (FIG. 5); type: cell-based, human; conditions: 4 days in SR medium containing butyrate
Method: hES cells undergo the Direct Differentiation protocol detailed earlier, making the adjustments to culture conditions shown in Table 12. Hepatocyte Culture Medium is purchased from Clonetics; Strom's Medium is prepared as described in Runge et al., Biochem. Biophys. Res. Commun. 265:376, 1999. The cell populations obtained are assessed by immunocytochemistry and enzyme activity.
Left column: 10×magnification; Right column: 40×magnification. By 4 days in the presence of butyrate, more than 80% of cells in the culture are large in diameter, containing large nuclei and granular cytoplasm (Row A). After 5 days in SR medium, the cells were switched to HCM. Two days later, many cells are multinucleated, and have a large polygonal shape (Row B). By 4 days in HCM, multinucleated polygonal cells are common, and have a darker cytosol (Row C), by which criteria they resemble freshly isolated human adult hepatocytes (Row D) or fetal hepatocytes (Row E).

[8] = tested on: hES cell derived embryoid bodies; assay: Phenotype of embryoid body cells after 6 days with n-butyrate: immunocytochemistry, glycogen (PAS), BrdU (Example 2); type: cell-based, human; conditions: EBs on Matrigel, 20% FBS + 5 mM sodium n-butyrate
Method: Cells were grown on chamber slides in the indicated growth medium, and labeled with 10 μM BrdU for 24 h. Cells were then fixed with 3:1 methanol: acetic acid for 30 minutes, and air-dried overnight in the dark. The fixed cells were rinsed once in PBS, and denatured in 0.07 N NaOH for 2 min followed by quick rinses in PBS pH 8.5 and pH7.4 several times. They were then blocked using 1.5% goat serum (Vector Labs) for 15 min, and incubated with anti BrdU antibody (Sigma) diluted 1:500 in 1.5% goat serum and 0.05% Tween™ 20 for 2 h. The samples were washed thrice in PBS, and then incubated with secondary antibody, which was biotinylated goat anti-mouse immunoglobulin (Vector Labs), at 10 μg/mL diluted in 1.5% horse serum for 30 min. […] Hoechst HO33258 stain (bisbenzimide, Sigma Cat. No. B2883) was mixed into the streptavidin solution at 2.5uM final concentration to stain all the nuclei.
The medium was changed daily or every other day. There was a lot of cell death on day 1 followed by less cell death on the subsequent days.
On the sixth day after plating in the differentiation agent, the cells were analyzed for expression of markers by RT-PCR and immunocytochemistry, following the procedures outlined earlier. Glycogen content in these cells was determined using periodic acid Schiff stain. The number of cells in S phase of cell cycle was determined by incubating the cells with 10 μM BrdU on day 5 after plating, and subsequently staining with anti-BrdU antibody 24 hours later.

[9] = Trypsinization and replating onto collagen, stained the following day
[10] = EBs on Growth Factor Reduced Matrigel, day 4, 20% FBS + 5 mM sodium butyrate, or 20% FBS + 0.5% DMSO + dexamethazone, insulin, EGF, glucagon

## CCCCCC(=O)O [Caproic acid]
[1]
  Induction of hepatocyte phenotype: −

## CC(C)C(=O)O [Isobutyric acid]
[1]
  Induction of hepatocyte phenotype: ±
[1]; 6 days
  Effect on hepatocyte differentiation (in words): effective in causing hepatocyte differentiation

## [Cl-].[Na+] [NaCl]
[1]; 6 days
  Effect on hepatocyte differentiation (in words): no effect

## CCC(=O)O [Propionic acid]
[1]; 6 days
  Effect on hepatocyte differentiation (in words): effective in causing hepatocyte differentiation

## CCCC(=O)[O-].[Na+] [Sodium n-butyrate]
[1]; 6 days
  Effect on hepatocyte differentiation (in words): equally effective
[2]; Collagen I
  Cytokeratin 18, percentage of cells positive: 100%
  Cytokeratin 19, percentage of cells positive: 100%
  Glycogen, percentage of cells positive: >60%
  albumin, percentage of cells positive: 79%
  α1-antitrypsin, percentage of cells positive: >90%
  α-fetoprotein, percentage of cells positive: 0
[2]; Gelatin
  Cytokeratin 18, percentage of cells positive: 100%
  Cytokeratin 19, percentage of cells positive: 100%
  Glycogen, percentage of cells positive: >60%
  albumin, percentage of cells positive: 50%
  α1-antitrypsin, percentage of cells positive: >90%
  α-fetoprotein, percentage of cells positive: 0
[2]; Matrigel
  Cytokeratin 18, percentage of cells positive: 100%
  Cytokeratin 19, percentage of cells positive: 100%
  Glycogen, percentage of cells positive: >60%
  albumin, percentage of cells positive: 56%
  α1-antitrypsin, percentage of cells positive: >90%
  α-fetoprotein, percentage of cells positive: 0
hES cells [3]
  CK18, positive cells: 100%
  CK19, positive cells: 100%
  Glycogen staining, positive cells: >60%
  albumin, positive cells: 62%
  α1-antitrypsin, positive cells: 90%
  α-fetoprotein, positive cells: 0%
[4]; Gelatin coated plates
  Albumin, percentage of cells staining: 56%
  CK18, percentage of cells staining: 100%
  CK19, percentage of cells staining: 100%
  Glycogen, percentage of cells staining: >60%
  α1-antitrypsin, percentage of cells staining: >90%
  α-fetoprotein, percentage of cells staining: 0
[4]; Matrigel coated plates
  Albumin, percentage of cells staining: 50%
  CK18, percentage of cells staining: 100%
  CK19, percentage of cells staining: 100%
  Glycogen, percentage of cells staining: >60%
  α1-antitrypsin, percentage of cells staining: >90%
  α-fetoprotein, percentage of cells staining: 0
[5]; No trypsinization
  Cytokeratin 8, % positive: >80%
  Cytokeratin 18, % positive: >80%
  Cytokeratin 19, % positive: >80%
  albumin, % positive: 11%
  glycogen, % positive: 0%
  α1-antitrypsin, % positive: >80%
  α-fetoprotein, % positive: 0%
[5]; [9]
  Cytokeratin 8, % positive: 45%
  Cytokeratin 18, % positive: 30%
  Cytokeratin 19, % positive: 30%
  albumin, % positive: 63%
  glycogen, % positive: >50%
  α1-antitrypsin, % positive: >80%
  α-fetoprotein, % positive: 0%
H9 hES cells
  Cell morphology (in words): contained many patches of hepatocyte-like cells
[6]; 20% FBS + 5 mM sodium butyrate, 1 day after plating
  Cell survival and morphology (in words): fairly homogenous population of cells survived
[6]; [10]
  AFP, cells showing positive staining: did not express AFP
  Albumin, percentage of cells showing positive staining: about 30%
  CK8, percentage of cells showing positive staining: 100% + ve
  CK18, percentage of cells showing positive staining: 100% + ve
  CK19, percentage of cells showing positive staining: 100% + ve
  SMA, percentage of cells showing positive staining: <1% + ve
  Vimentin, percentage of cells showing positive staining: 100% + ve
  α1-antitrypsin, percentage of cells showing positive staining: >60% + ve
[6]; EBs on Growth Factor Reduced Matrigel, day 4, 20% FBS + 5 mM sodium butyrate, or 20% FBS + 0.5% DMSO + dexamethazone, insulin, EGF, glucagon, listed as Na butyrate
  Albumin, percentage of cells showing positive staining: 30% + ve*
[6]; first day of culture with the differentiation agent
  Cultured embryoid body derived cells released from the substrate into the medium: about 90%
hES cells [7]; listed as butyrate
  Cells large in diameter, containing large nuclei and granular cytoplasm: more than 80%
hES cells [7]; listed as sodium n-butyrate
  Cells large in diameter, containing large nuclei and granular cytoplasm: More than 80%
[8]; day 6
  Albumin, % positive cells: 55%
  CK8, % positive cells: 100%
  CK18, % positive cells: 100%
  CK19, % positive cells: 100%
  Desmin, % positive cells: 0%
  Glycogen staining (Periodic Acid Schiff), % positive cells: 60%
  α1-antitrypsin, % positive cells: 90%
  α-fetoprotein, % positive cells: 0%
[8]; 10 μM BrdU on day 5, stained 24 hours later
  BrdU staining, % positive cells: 16%

## CC(/C=C/C(=O)NO)=C\[C@@H](C)C(=O)c1ccc(N(C)C)cc1 [Trichostatin A]
[1]; EB-derived cells, 6 days
  Concentration range found ineffective: 10 to 50 nM
  Concentration range found to be toxic to cells: 2500 to 100000 nM
  Concentration range that induces hepatocyte differentiation and selects against survival of other cell types: 75 to 100 nM
[1]
  Induction of hepatocyte phenotype: +
hES cells [3]
  CK18, positive cells: >70%
  CK19, positive cells: >90%
  Glycogen staining, positive cells: >50%
  albumin, positive cells: 41%
  α1-antitrypsin, positive cells: 81%

## CCCCC(=O)O [Valeric acid]
[1]
  Induction of hepatocyte phenotype: −

## CCCC(=O)O [n-Butyric Acid]
[1]; 6 days
  Effect on hepatocyte differentiation (in words): equally effective

## CCC(O)C(=O)O (stereo not drawn) [α-hydroxybutyric acid]
[1]
  Induction of hepatocyte phenotype: −

## CC(O)CC(=O)O (stereo not drawn) [β-hydroxybutyric acid]
[1]
  Induction of hepatocyte phenotype: −
